From US12697343B2, “Intravenous istaroxime for the treatment of acute heart failure” (Seismic Pharmaceuticals Operations LLC, priority 2021, dated 2026)
Where a name gives a salt, the structure may show the parent alone.

Test system: patients hospitalized for acute heart failure (AHF)
Assay: Echocardiographic parameters (tissue Doppler echocardiography), phase II trial of 24 h istaroxime infusion
Assay type: in vivo, human
Details: for A wave mean change from baseline / CI mean change from baseline / E wave mean change from baseline / E/A ratio mean change from baseline / E/e′ ratio mean change from baseline / EDV Index mean change from baseline / EDV mean change from baseline / ESV Index mean change from baseline / ESV mean change from baseline / IVC diameter mean change from baseline / LAA mean change from baseline / LAV mean change from baseline / LAVI mean change from baseline / LVEF mean change from baseline / PASP mean change from baseline / SVI mean change from baseline / S′ mean change from baseline / TAPSE mean change from baseline / e′ mean change from baseline: 0.5 μg/Kg/min; for E/e′ change from baseline to 24 h (primary endpoint): 0.5 μg/kg/min (cohort 1), mITT, hydrochloride
From the text: The measurement of one or more cardiac parameters disclosed herein can be measured by Echocardiography which may be performed on subjects according to international standards (see, for example, Lang R M et a I. J Am Soc Echocardiogr 2005; 18(12): 1440-63; Nagueh S F et al. Eur J Echocardiogr 2009; 10(2): 165-93; Evangelista A et a I. Eur J Echocardiogr 2008; 9(4):438-48).
In some embodiments, cardiac parameters can be measured as follows: • 1. Cardiac dimension measures: • a. Left ventricle end diastolic diameter (EDD): measured with M-mode echocardiography at the level of mitral valve (MV) leaflets from parasternal long axis view (PLAX) (normal range [N R]: 42-59 mm males and 39-53 mm females); • b. Left ventricle end systolic diameter (ESD): measured with M-mode echocardiography at the level of mitral valve (MV) leaflets from PLAX (N R: 25-35 mm): • c. Left ventricle end diastolic volume (EDV): measured with M-mode echocardiography at the level of mitral valve (MV) leaflets from PLAX (N R: 67-155 mL males and 56-104 mL females); • d. Left ventricle end systolic volume (ESV): measured with M-mode echocardiography at the level of mitral valve (MV) leaflets from PLAX (N R: 22-58 mL males and 19-49 mL females); • e. Left atrium diameter (LAD): measured at end-ventricular systole with M-mode echocardiography from PLAX. (N R: 30-40 mm males and 27-38 mm females) • f. Left atrium area (LAA): measured from apical four chamber view (NR: £20 cm2); and • g. Left atrium volume (LAV): derived from area-length measured from apical four chamber view (N R: 18-58 mL males and 22-52 mL females). • 2. Left ventricle diastolic function parameters: • a. E wave: measured from mitral valve pulsed wave Doppler, is the peak velocity of early filling. […] A wave: measured from mitral valve pulsed wave Doppler is the peak velocity of late atrial filling. Not evaluable in subjects with AF: • c. E wave deceleration time (EDT): measured from mitral valve pulsed wave Doppler represent the slope of the descending part of E wave; • d. E/A ratio: determines the type of diastolic filling pattern (normal E/A=1-2 and EDT=150-200 ms, abnormal relaxation E/A<1 and EDT>240 ms, pseudonormal E/A=0.8-1.5: restrictive E/A^32 and EDT <160 ms). Not evaluable in subjects with AF; • e. Ea: measured with tissue Doppler method at the lateral and septal side of the mitral annulus from apical four chamber view is the early diastolic velocity. The value has been calculated as the average between Ea lateral and Ea septal. (NR310 cm/s) (see Nagueh S F et al. Eur J Echocardiogr. 2009:10(2):165-93); • f. Aa: measured with tissue Doppler method at the lateral and septal side of the mitral annulus from apical four chamber view is the late atrial diastolic velocity. The value has been calculated as the average between Aa lateral and Aa septal. Not evaluable in subjects with AF; and • g. E/Ea ratio: this is a derived measure from E and Ea value. This is highly correlated with left ventricle filling pressure and with prognosis in subjects with HF. (NR: <13) (see Nagueh S F et al. supra). • 3. Left ventricle systolic function parameters: • a. Left ventricle ejection fraction (LVEF): measured with Simpson biplane method according to international recommendations from apical four chamber view and apical two chamber view. (NR ^355%) (see Lang R M et al. J Am Soc Echocardiogr. 2005:18(12): 1440-63); and • b. Sa: measured with tissue Doppler method at the lateral and septal side of the mitral annulus from apical four chamber view. The value has been calculated as the average between Sa lateral and Sa septal. […] Overall cardiac contraction parameters: • a. Stroke volume (SV): is a derived measure obtained with the application of Bernoulli's formula using the dimension of left ventricle outflow tract (LVOT) as diameter and LVOT time velocity integral as velocity. (NR>60 mL/beat); • b. Cardiac output (CO): is derived by the multiplication of SV× heart rate (HR) (NR: >4 L/min); • c. […]

[1] = 0.5 μg/kg/min, mean ± standard deviation

SMILES: C[C@]12CCC(=NOCCN)C[C@@H]1C(=O)C[C@@H]1[C@@H]2CC[C@]2(C)C(=O)CC[C@@H]12 [Istaroxime, (E,Z)-3-((2-aminoethoxy)imino)androstane-6,17-dione hydrochloride]
- A wave mean change from baseline (6 hours): 1.76 cm/s
- CI mean change from baseline (6 hours): 0.20 l/min/m^2
- E wave mean change from baseline (6 hours): -4.35 cm/s
- E/A ratio mean change from baseline (6 hours): −0.28
- E/e′ ratio mean change from baseline (6 hours): −3.48
- EDV Index mean change from baseline (6 hours): 0.85 ml/m^2
- EDV mean change from baseline (6 hours): 1.47 mL
- ESV Index mean change from baseline (6 hours): −2.54 ml/m^2
- ESV mean change from baseline (6 hours): -4.89 mL
- IVC diameter mean change from baseline (6 hours): −2.41 mm
- LAA mean change from baseline (6 hours): −0.38 cm^2
- LAV mean change from baseline (6 hours): 0.05 mL
- LAVI mean change from baseline (6 hours): −0.51 mL/m^2
- LVEF mean change from baseline (6 hours): 2.03%
- PASP mean change from baseline (6 hours): −4.21 mmHg
- SVI mean change from baseline (6 hours): 5.66 ml/beat/m^2
- S′ mean change from baseline (6 hours): 0.63 cm/s
- TAPSE mean change from baseline (6 hours): 0.41 mm
- e′ mean change from baseline (6 hours): 0.63 cm/s
- A wave mean change from baseline (24 hours): 5.13 cm/s
- CI mean change from baseline (24 hours): 0.27 l/min/m^2
- E wave mean change from baseline (24 hours): -8.14 cm/s
- E/A ratio mean change from baseline (24 hours): −0.64
- E/e′ ratio mean change from baseline (24 hours): −4.55
- EDV Index mean change from baseline (24 hours): −0.20 ml/m^2
- EDV mean change from baseline (24 hours): -0.71 mL
- ESV Index mean change from baseline (24 hours): −3.78 ml/m^2
- ESV mean change from baseline (24 hours): -7.11 mL
- IVC diameter mean change from baseline (24 hours): −4.30 mm
- LAA mean change from baseline (24 hours): −1.70 cm^2
- LAV mean change from baseline (24 hours): -7.94 mL
- LAVI mean change from baseline (24 hours): −4.32 mL/m^2
- LVEF mean change from baseline (24 hours): 3.03%
- PASP mean change from baseline (24 hours): −10.89 mmHg
- SVI mean change from baseline (24 hours): 5.33 ml/beat/m^2
- S′ mean change from baseline (24 hours): 0.68 cm/s
- TAPSE mean change from baseline (24 hours): 0.73 mm
- e′ mean change from baseline (24 hours): 0.94 cm/s
- A wave mean change from baseline (48 hours): -0.94 cm/s
- CI mean change from baseline (48 hours): 0.19 l/min/m^2
- E wave mean change from baseline (48 hours): -5.21 cm/s
- E/A ratio mean change from baseline (48 hours): −0.28
- E/e′ ratio mean change from baseline (48 hours): −2.56
- EDV Index mean change from baseline (48 hours): −0.07 ml/m^2
- EDV mean change from baseline (48 hours): -0.59 mL
- ESV Index mean change from baseline (48 hours): −1.19 ml/m^2
- ESV mean change from baseline (48 hours): -2.57 mL
- IVC diameter mean change from baseline (48 hours): −4.16 mm
- LAA mean change from baseline (48 hours): −2.01 cm^2
- LAV mean change from baseline (48 hours): -9.17 mL
- LAVI mean change from baseline (48 hours): −5.01 mL/m^2
- LVEF mean change from baseline (48 hours): 1.19%
- PASP mean change from baseline (48 hours): −11.18 mmHg
- SVI mean change from baseline (48 hours): 3.68 ml/beat/m^2
- S′ mean change from baseline (48 hours): 0.22 cm/s
- TAPSE mean change from baseline (48 hours): −0.34 mm
- e′ mean change from baseline (48 hours): 0.32 cm/s
- E/e′ change from baseline to 24 h (primary endpoint) (mean ± standard deviation): −4.55 ± 4.75
- E/e′ change from baseline to 24 h (primary endpoint) (mean ± standard deviation, listed as istaroxime): −4.55±4.75
- E/A ratio change at 24 h [1]: −0.64 ± 0.79
- LV ejection fraction change at 24 h [1]: 3.03 ± 4.04%
- LV end-diastolic volume index change at 24 h [1]: −0.20 ± 5.45 mL/m^2
- LV end-systolic volume index change at 24 h [1]: −3.78 ± 6.76 mL/m^2
- Left atrial area change at 24 h [1]: −1.70 ± 2.46 cm^2
- Left atrial volume index change at 24 h [1]: −4.32 ± 7.28 mL/m^2
- Stroke volume index change at 24 h [1]: 5.33 ± 6.67 mL/beat/m^2
- S′ change at 24 h [1]: 0.68 ± 0.91 cm/s
